According to ChEMBL document CHEMBL3507680, “University of Dundee, Gates Library screen for HepG2 cell viability”:

Experiment: Human HepG2 cell viability assay in 384 well format
Type: toxicity, cell-based
Set-up: dose 125 nL, time 70.5 hour; concentration not given beside the values
Settings: HepG2 cells, read-out: Inhibition

Row | SMILES | cytotoxicity at 70.5 h [%]
1 | COc1c(NS(=O)(=O)c2ccc(F)c(C)c2)c(C)nn1C | 0.334
2 | Cc1cc(NC(=O)CCCn2ccnc2C)nc(C(C)C)n1 | 0.794
3 | CNC(=O)c1cccnc1NCCOc1ccccc1 | -0.952
4 | O=C1CN(C(=O)CSC2CCCc3ccccc32)CCN1 (stereo not given) | 5.33
5 | CC(C)n1nc2c(cc1=O)CN(c1nc3ccccc3s1)CC2 | 3.31
6 | c1ccc2nc(N3CCCCC3)c(NCc3nnc4n3CCC4)nc2c1 | -8.39
7 | Fc1ccc(C2(NCc3ccccc3)CCOCC2)cc1 | -3.51
8 | Cc1cc(CN(C)Cc2csc(-c3ccc(C(C)C)cc3)n2)no1 | 14.4
9 | Cc1cccc(C)c1NC(=O)CNC(C)Cc1ccsc1 (stereo not given) | 32.9
10 | CCn1cc(CNc2ccc(Br)c(OC)c2)cn1 | 4.22
11 | N#Cc1ncn(CCS(=O)(=O)c2ccccc2)n1 | -16.8
12 | CNC(=O)CCS(=O)(=O)Cc1nnnn1-c1ccccc1 | -3.85
13 | CCn1cnnc1CNC(=O)NCC(C(C)C)N1CCOCC1 (stereo not given) | -13
14 | CCn1cnnc1CNC(=O)NCC(C(C)C)N1CCC(C)CC1 (stereo not given) | 10.3
15 | Cc1nc(CSc2ccc(C(F)(F)F)cn2)no1 | -9.49
16 | Cc1cc(NC(=O)NCc2ccc(S(=O)(=O)N3CCCC3)s2)no1 | -7.64
17 | CCn1cnnc1CNC(=O)NCC(C)(CC)N1CCOCC1 (stereo not given) | -9.65
18 | CCn1cnnc1CNC(=O)N(C)Cc1ccccc1OC | -4
19 | CCS(=O)(=O)Cc1nnnn1-c1ccccc1 | -8.76
20 | CCOCC(=O)Nc1ccc(N2CCSCC2)cc1C | -7.62
21 | Cc1c(CS(C)(=O)=O)cccc1NC(=O)CC1CCCC1 | -7.53
22 | Cc1cc(C(=O)NCC2CCC3(CC2)OCCO3)[nH]n1 | 1.56
23 | C1CCC(CNC2CCCN(Cc3noc(C4CC4)n3)C2)CC1 (stereo not given) | -15.3
24 | O=C(NCc1ccccc1Cn1cncn1)N1CCCC1 | -12.2

Row | SMILES | cytotoxicity at 70.5 h [%]
25 | CN(C)C(=O)CCS(=O)(=O)Cc1coc(-c2ccc(F)cc2)n1 | -16.4
26 | CNC(=O)CS(=O)(=O)Cc1coc(-c2cccc(F)c2)n1 | -8.64
27 | Cc1nnc(CN2CCC(c3nc4cc(Cl)ccc4o3)CC2)n1C | -18.9
28 | Clc1ccc2oc(C3CCN(Cc4nc(C5CC5)no4)CC3)nc2c1 | -16.3
29 | CCc1nnc(CN2CCC(c3nc4cc(Cl)ccc4o3)CC2)o1 | -11.3
30 | CN(CC(=O)N1CCN(c2cnccn2)CC1)c1ccc(Cl)cn1 | -13.1
31 | COc1ccc(NC(=O)COc2nn(C)c3nc(C)cc(C)c23)cn1 | -18.4
32 | Cc1cc(NC(=O)CN2CCc3c(nc(C(C)C)n3C)C2)on1 | -14.3
33 | CS(=O)(=O)CCCSc1cccc(C#N)c1 | -13
34 | COc1cc(C(=O)NS(=O)(=O)c2cncc(Br)c2)cc(Cl)c1OC | -15.8
35 | CCN(CC)C(=O)CNC(=O)N1CCC(c2ccccc2)C1 (stereo not given) | -6.54
36 | CC(CNC(=O)c1cc(Cl)ccc1F)N1CCCC1 (stereo not given) | -13.5
37 | CNC(=O)N1CCCCC1CCNS(C)(=O)=O (stereo not given) | -13.3
38 | C1CC(NCC2CC2)CN(Cc2noc(C3CC3)n2)C1 (stereo not given) | -15.4
39 | CN(Cc1ccc(Cl)s1)C(=O)c1ccccc1OCC(N)=O | -14.1
40 | CS(=O)(=O)CCNC1CCCN(Cc2noc(C3CC3)n2)C1 (stereo not given) | -13.7
41 | Cc1cc(NC(=O)NCCc2ccc3c(c2)OCCO3)n(C)n1 | -4.79
42 | CN1CCN(C(CNC(=O)c2ccc(Cl)cc2F)c2cccs2)CC1 (stereo not given) | 42.7
43 | CC(Cn1cccn1)NC(=O)Nc1ccc(N2CCCC2)nc1 (stereo not given) | 10.1
44 | CN(CC(N)=O)Cc1ccc(F)cc1Cl | -5.08
45 | CCc1nnc2n1CCN(Cc1csc(-c3ccccc3F)n1)C2 | -7.77
46 | Cc1cc(N(C)C)nc(N2CCN(Cc3nccn3C)CC2)n1 | -5.76
47 | CCOc1cc(C)nc(N2CCN(Cc3nccn3CC)CC2)n1 | 7.28
48 | CC(C)c1nnc2n1CCN(Cc1csc(-c3cnn(C)c3)n1)C2 | -2.14

Row | SMILES | cytotoxicity at 70.5 h [%]
49 | Cc1csc(NC(=O)CN2CCc3nn(C)c(=O)cc3C2)n1 | -8.05
50 | Cn1ccnc1-c1cccc(NC(=O)NCC(=O)NC(C)(C)C)c1 | 4.86
51 | Cn1nc2c(cc1=O)CN(CC(=O)Nc1nncs1)CC2 | -1.1
52 | CC(C)NC(=O)CCNC(=O)Nc1cccc(-c2nccn2C)c1 | -2.81
53 | CCn1nc2c(cc1=O)CN(CC(=O)Nc1cc(C)no1)CC2 | -0.888
54 | CC(C)c1cc(NC(=O)CN2CCc3nn(C)c(=O)cc3C2)on1 | -4.73
55 | Cn1cc(-c2csc(N3CCSCC3)n2)cn1 | -3.33
56 | Fc1cccc(-n2cccn2)c1NCc1nnc(C2CC2)o1 | -2.54
57 | CC(=O)NCCc1ccc(S(=O)(=O)N(C)C(C)C(C)(C)C)s1 (stereo not given) | -9.01
58 | CCc1nnc2n1CCN(Cc1csc(-c3ccccc3)n1)C2 | -12.9
59 | CC(C)C(O)C1(CNC(=O)Nc2ccc(CN3CCOC3=O)cc2)CC1 (stereo not given) | -11.3
60 | CCn1ccnc1CN1CCN(c2nc(C)cc(OC)n2)CC1 | -9.98
61 | COc1cccnc1NC(=O)COc1ccc(F)cc1F | -6.39
62 | NC(=O)C1CCN(Cc2cc3c(cc2Br)OCCO3)C1 (stereo not given) | -1.46
63 | Cc1nc(C(C)(C)NC(=O)Nc2ccc(C#N)cc2)no1 | -4.52
64 | COCCN(Cc1ccc(F)cc1Cl)C(=O)c1cnn(C)c1C | 7.76
65 | COCCN(Cc1ccc(F)cc1Cl)C(=O)c1c(C)noc1C | 2.4
66 | CCOC(=O)NCCNC(=O)c1cc(Br)cn1C(C)C | 9.21
67 | Cc1ccc(C(=O)N2CCOC(c3nc(C(C)(C)C)n[nH]3)C2)c(=O)[nH]1 (stereo not given) | 0.0481
68 | Cc1cc(C(=O)Nc2ccnc(OC3CCOC3)c2)c(C)o1 (stereo not given) | -1.8
69 | O=C(Nc1ccnc(OC2CCOC2)c1)c1ccccc1Cl (stereo not given) | -4.06
70 | CCOCCN1CCN(Cc2nnc(C3CC3)o2)CC1 | -2.06
71 | CCOCCN1CCN(Cc2nc(C)no2)CC1CC (stereo not given) | -2.4
72 | OCCOc1cc(F)ccc1NCc1nc(-c2cccs2)no1 | -10.9

Row | SMILES | cytotoxicity at 70.5 h [%]
73 | Cc1ccccc1-c1noc(CNc2ccc(F)cc2OCCO)n1 | 1.21
74 | Cc1ccc2cc(C(=O)N3CCN(C(=O)c4ccoc4)CC3)[nH]c2c1 | 8.19
75 | Cc1occc1CN(C)C(=O)Nc1ccc(=O)n(C)c1 | -7.93
76 | CC(NCc1ccccc1O)c1ccc(-n2ccnc2)cc1 (stereo not given) | 26.4
77 | Cc1nnc2n1CC(CNc1cnc3ccccc3n1)CC2 (stereo not given) | -9.52
78 | CC(C)c1nnc2n1CC(CNc1cnc3ccccc3n1)CC2 (stereo not given) | -9.13
79 | OCCOc1cc(F)ccc1NCc1nc(-c2ccoc2)no1 | 8.3
80 | CCc1nnc2n1CC(CNc1cnc3ccccc3n1)CC2 (stereo not given) | 1.47
81 | Cc1n[nH]cc1CNC1CCN(c2cccc(C(F)(F)F)c2)CC1 | 2.2
82 | Cn1[nH]c(C2CC2)c(-c2ccc3c(c2)OCO3)c1=N | 8.3
83 | Cc1cnn(CC(=O)NCC2(O)CCCc3ccccc32)c1 (stereo not given) | 2.95
84 | CCc1nc(Cn2c(=O)n(C)c3ccccc32)no1 | -6.86
85 | OCc1cc2ccccc2nc1NCC1(O)CCC1 | -8.77
86 | CCNC(=O)N1CCC(NC(=O)NCCc2ccc(C)cc2C)C1 (stereo not given) | -3.65
87 | OCc1cc2ccccc2nc1NCC1CCN(CC(F)(F)F)C1 (stereo not given) | 27.3
88 | CCNC(=O)N1CCC(NC(=O)NCCc2cc(F)cc(F)c2)C1 (stereo not given) | 1.55
89 | CN(Cc1ccncc1)C(=O)NCc1cn(-c2ccccc2)nn1 | -8.45
90 | CCOCCN1CCN(Cc2nnc(-c3occc3C)o2)CC1 | 9.82
91 | CCOCCN1CCN(Cc2nnc(-c3ccco3)o2)CC1 | -5.68
92 | Cc1cc(CSC2CCCN(c3cnn(C)c3)C2=O)no1 (stereo not given) | -3.62
93 | CC(C)(C)CC(=O)NCC(=O)Nc1ccn(Cc2ccccc2)n1 | -11
94 | NC(=O)NC(=O)CNC1(c2ccc(Cl)cc2)CCCC1 | -17.2
95 | Cn1nc(Br)c2c(NCCS(N)(=O)=O)ncnc21 | 28.8
96 | Cn1nc(Br)c2c(NCCCS(N)(=O)=O)ncnc21 | -22.7

Row | SMILES | cytotoxicity at 70.5 h [%]
97 | COCCCNC(=O)CN1CCSC(c2ccccc2)C1 (stereo not given) | 3.9
98 | CC(C)(C)CC(=O)NCC(=O)Nc1ccn(CCCn2ccnc2)n1 | -2.26
99 | O=C(c1ccc(N2CCCC2)nc1)N1CCCC(c2nccs2)C1 (stereo not given) | -20.6
100 | COc1ccc(C(C)NC(=O)N2CCNC(=O)CC2)cc1F (stereo not given) | -1.24
101 | CN1CC(C(=O)NC2(c3cccc(F)c3)CCOCC2)CC1=O (stereo not given) | -7.9
102 | Cn1cc(N2CCCC(SCc3nc(C4CC4)no3)C2=O)cn1 (stereo not given) | 29.8
103 | CC(C)(C)NC(=O)CNC(=O)Nc1cc(-c2ccccc2)ns1 | -14.8
104 | CCC1CN(c2ncnc3nc[nH]c23)CCO1 (stereo not given) | 11.7
105 | CC(C)C(=O)NCCCNC(=O)Nc1cc(-c2ccccc2)ns1 | -12.9
106 | CC(C(=O)NCC1CCN(c2ccncc2)CC1)S(C)(=O)=O (stereo not given) | -7.42
107 | FC(F)CN1CCC(NCc2ccc(-n3cccn3)nc2)CC1 | -9.95
108 | O=C(Nc1ccc(-n2cccn2)cc1)N1CCC(O)C1 (stereo not given) | 28.4
109 | CC(C)Cc1nc(CSC2CCCN(c3cnn(C)c3)C2=O)no1 (stereo not given) | -1.14
110 | c1ccc(-n2nnnc2CNCc2ccc3c(c2)OCCO3)cc1 | -8.49
111 | CCc1nc(CSC2CCCN(c3cnn(C)c3)C2=O)cs1 (stereo not given) | 7.29
112 | Cc1ccccc1OCCN1CCCC1CS(N)(=O)=O (stereo not given) | 0.0321
113 | CCn1nc2c(cc1=O)CN(CCOc1ccccc1C#N)CC2 | -8.44
114 | O=C(CN1CCSC(c2ccccc2)C1)NCc1ccccn1 (stereo not given) | -5.23
115 | Cn1cc(N2CCCC(SCc3ccco3)C2=O)cn1 (stereo not given) | 14.8
116 | CCC(C(=O)NCC1CCN(c2ccncc2)CC1)N(C)C (stereo not given) | -7.96
117 | Cc1cccc(CNCC2COC3(CCCCC3)O2)c1C (stereo not given) | 34.7
118 | CS(=O)(=O)CCNCc1ccc(OCc2cscn2)cc1 | -3.66
119 | Cc1ncsc1CNC(=O)N1CCN(Cc2ccccc2)C[C@H]1C | -3.58
120 | Cn1nc(C2CCCC2)c(-c2ccc3c(c2)OCO3)c1N | -8.03
